Measured values: patent publication US20060252045A1, “Methods and materials for identifying agents which modulate bone remodeling and agents identified thereby” (priority 2003, published 2006)

Assays:
[1] = tested on: Wnt/β-catenin target gene expression in MC3T3 cells; experiment: Flexercell mechanical load gene expression in MC3T3 cells (real-time PCR); conditions: for load induced Frizzled 2, eNOS, Fos and Jun gene expression: MC3T3, 1-60 μM added 1 hr prior to load; for load induced Connexin 43, Cyclin D1, Wnt 10b, SFRP1 and COX-2 gene expression: MC3T3, 1-60 μM added 1 hr prior to load (3,400 με, 5 hrs)
Experimental: For these experiments, the mouse MC3T3 osteoblastic cells were cultured in alpha minimum essential media (αMEM) (Invitrogen) supplemented with 10% heat inactivated FBS, 1% glutamax (Invitrogen) and 1% penicillin/streptomycin (Invitrogen). […] For those samples being pretreated in serum free media the cells were washed twice each with 2 mL of basal αMEM media prior to adding the BSA containing media. […] The cells were then subjected to mechanical distortion equivalent to 3,400 με (2 Hz, 7200 cycles/hr), for 5 hrs using a FX-3000 Flexercell® strain unit (Flexcell International Corp). RNA was then harvested (using the Qiagen Rneasy mini kit) immediately or 24 hr post loading from both the mechanical strained samples as well as the non-strained controls. All data shown in the examples that utilize the FlexerCell were derived from the RNA immediately harvested following loading.
Real-time PCR was then performed for the indicated genes using mouse gene specific primers and probes as discussed above.
RNA was isolated immediately after application of load and processed for TaqMan® analysis. The transcripts analyzed were COX-2, eNOS, Connexin 43, SFRP1, Wnt10B, cyclin D1, Frizzled 2, WISP2, Fos and Jun (FIG. 15).
Here, Wnt 3A conditioned media was obtained from mouse L-cells transfected with murine Wnt 3A. The MC3T3 cells were seeded and cultured for 3 days in growth media until confluence, as described above. The media for the MC3T3 cells was then changed to BSA containing media, and the cells were incubated for 24 hours. The BSA-containing media was then removed and replaced with fresh BSA media at a final volume of 1 mL containing various amounts of L-cell Wnt 3A conditioned media or control conditioned media from untransfected L-cells. The amount of Wnt 3A conditioned media varied from 0.5, 2.0, 5.0, 10.0, 20.0 and 100 μL in a final volume of 1 ml serum free BSA media. The MC3T3 cells were then subjected to 3,400 με at 2 Hz, 7200 cycles/hr for 5 hours as described in the prior examples.

[2] = tested on: β-catenin; experiment: Mouse calvarial model: β-catenin immunohistochemistry; type: in vivo; conditions: local injection
Experimental: Following sacrifice by CO2 narcosis, calvariae were removed intact, soft tissues were gently dissected, and the bones were fixed in 70% ethanol for 24 h for further processing and analysis. Calvariae were then bisected perpendicular to the sagittal suture through the central portion of the parietal bones parallel to the lambdoidal and coronal sutures. The anterior portion of the calvaria was used for paraffin sections, and the posterior portion of the calvaria was used for frozen sections. Four to five 5 μm-thick representative, non-consecutive step sections were cut.
After fixation, the anterior portion of the calvaria was decalcified in Surgipath Decalcifier II (Richmond, Ill.) for 7-8 h and then dehydrated in graded alcohol. Four to five 5 μm-thick representative, non-consecutive coronal step paraffin sections were cut. […] The binding of the antibody to the epitope was visualized (1 μg/1 mL) using an avidin-linked AP system (Vector Laboratories, Burlingame, Calif.). Controls comprised samples with the avidin-AP in the absence of primary antibody.

[3] = tested on: mouse calvariae; experiment: Mouse calvarial model: calvarial thickness (histomorphometry); type: in vivo; conditions: 20 μg/kg/day
Experimental: Following sacrifice by CO2 narcosis, calvariae were removed intact, soft tissues were gently dissected, and the bones were fixed in 70% ethanol for 24 h for further processing and analysis. Calvariae were then bisected perpendicular to the sagittal suture through the central portion of the parietal bones parallel to the lambdoidal and coronal sutures. The anterior portion of the calvaria was used for paraffin sections, and the posterior portion of the calvaria was used for frozen sections. Four to five 5 μm-thick representative, non-consecutive step sections were cut. The paraffin sections are routinely stained with hematoxylin and eosin (H&E) for the measurement of calvarial thickness. The frozen sections were used for alkaline phosphatase detection. To facilitate histomorphometric measurements, a standard length of 2 mm of each section from the edge of the sagittal suture to the muscle insertion at the lateral border of each bone was used. All measurements were made using the R&M Biometrics Inc. Bioquant Image Analysis System.

[4] = tested on: alkaline phosphatase activity in calvarial osteoblasts; experiment: Mouse calvarial model: alkaline phosphatase histochemical staining; type: in vivo; conditions: local administration, 7 days, vs vehicle
Experimental: Following sacrifice by CO2 narcosis, calvariae were removed intact, soft tissues were gently dissected, and the bones were fixed in 70% ethanol for 24 h for further processing and analysis. Calvariae were then bisected perpendicular to the sagittal suture through the central portion of the parietal bones parallel to the lambdoidal and coronal sutures. The anterior portion of the calvaria was used for paraffin sections, and the posterior portion of the calvaria was used for frozen sections. Four to five 5 μm-thick representative, non-consecutive step sections were cut. […] The frozen sections were used for alkaline phosphatase detection. To facilitate histomorphometric measurements, a standard length of 2 mm of each section from the edge of the sagittal suture to the muscle insertion at the lateral border of each bone was used. All measurements were made using the R&M Biometrics Inc. Bioquant Image Analysis System.
The activity of Alkaline Phosphatase (ALPase) was assessed with a histochemical stain using a Vector Red Alkaline Phosphatase Substrate Kit (Vector Laboratories, Inc. Burlingame, Calif.) in 6 μm frozen sections of the mouse parietal bone after fixing in 70% Ethanol.

[5] = tested on: Dkk1 suppressed Wnt1/Wnt 3A TCF-signal in U2OS cells; experiment: Release of Dkk1 mediated inhibition of TCF-signal in U2OS cells; type: cell-based, human; conditions: Dkk1 0.1 μg/well co-transfected with Wnt1 or Wnt 3A
Experimental: The final readout is activation of Dkk1 mediated suppressed TCF-signal. […] The experiment represented in FIG. 2 involved U2OS (ATCC) bone cells and is based on the endogenous expression of LRP5/6 receptors. […] 10 μL of the 15× stock was added per well along with appropriately diluted vehicle (i.e., DMSO) control.

**Q.** How did the “cyclin D1, connexin 43, SFRP1, Wnt 10B, WISP2, COX-2, FOS and JUN gene expression, alone” value ([1]; MC3T3, Wnt 3A conditioned media, no load) turn out when Wnt 3A was run?
**A.** no effect

**Q.** How did the “load induced Frizzled 2, eNOS, Fos and Jun gene expression” value [1] turn out when `CS(=O)(=O)Nc1ccc([N+](=O)[O-])cc1OC1CCCCC1` [NS-398, N-(2-cyclohexyloxy-4-nitrophenyl)methanesulfonamide] was run?
**A.** no effect

**Q.** What about the “load induced Connexin 43, Cyclin D1, Wnt 10b, SFRP1 and COX-2 gene expression” value [1] of the same molecule?
**A.** block the induction

**Q.** What about the “load induced Connexin 43, Cyclin D1, Wnt 10b, SFRP1 and COX-2 gene expression” value ([1]; listed as COX-2 inhibitor) of the same molecule?
**A.** does not induce transcription

**Q.** And the “load induced Frizzled 2, eNOS, Fos and Jun gene expression” value ([1]; listed as COX-2 inhibitor)?
**A.** independent of COX-2 activity

**Q.** For “Human PTH (1-34): Human parathyroid hormone (1-34), positive control in the calvarial model (SVSEIQLMHNLGKHLNSMERVEWLRKKLQDVHNF; Parathyroid hormone; UniProt P01270 32-65, looked up, fragment)”, which “β-catenin expression in osteoblastic cells lining the periosteum” value [2] is on record?
**A.** no effect

**Q.** And the “effect on calvarial thickness (positive control)” value [3]?
**A.** significant increase in calvarial thickness

**Q.** And the “alkaline phosphatase (ALPase) activity in osteoblasts” value [4]?
**A.** markedly enhanced

B1: Dkk1: Wnt antagonist co-transfected into U2OS cells; inhibits LRP5 activity (protein, UniProt O94907 32-266, looked up)
Dickkopf-related protein 1: TLNSVLNSNAIKNLPPPLGGAAGHPGSAVSAAPGILYPGGNKYQTIDNYQPYPCAEDEECGTDEYCASPTRGGDAGVQICLACRKRRKRCMRHAMCCPGNYCKNGICVSSDQNHFRGEIEETITESFGNDHSTLDGYSRRTTLSSKMYHTKGQEGSVCLRSSDCASGLCCARHFWSKICKPVLKEGQVCTKHRRKGSHGLEIFQRCYCGEGLSCRIQKDHHQASNSSRLHTCQRH
**Q.** With B1 as the molecule, how does the “effect on Wnt1/Wnt 3A TCF-activity” value [5] read?
**A.** suppressed almost completely
